Measured values published in PubChem BioAssay (NCI).
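In this assay, cells in 96-well plates receive the compound at five concentrations for 48 hours. Endpoints are linearly interpolated between the surrounding concentrations. GI50 = concentration required for 50% inhibition of growth. TGI marks complete inhibition of growth.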

Experiments:
Test in all cases: NCI tumour cell line growth inhibition, 48 h
786-0 renal = tested on: 786-0 renal
A549 NSCLC = tested on: A549 NSCLC
CCRF-CEM leukemia = tested on: CCRF-CEM leukemia
KM12 colon = tested on: KM12 colon
MDA-MB-231 breast = tested on: MDA-MB-231 breast
MOLT-4 leukemia = tested on: MOLT-4 leukemia
NCI-H23 lung = tested on: NCI-H23 lung
OVCAR-4 ovarian = tested on: OVCAR-4 ovarian
RPMI-8226 leukemia = tested on: RPMI-8226 leukemia
RXF 393 renal = tested on: RXF 393 renal

CCN(c1cc(C#CCN2CCOCC2)cc(C(=O)NCc2c(C)cc(C)[nH]c2=O)c1C)C1CCC(N(C)CCOC)CC1 (stereo not given)
GI50 (786-0 renal): > 100 µM
TGI (786-0 renal): > 100 µM
GI50 (A549 NSCLC): > 100 µM
TGI (A549 NSCLC): > 100 µM
GI50 (CCRF-CEM leukemia): > 100 µM
TGI (CCRF-CEM leukemia): > 100 µM
GI50 (KM12 colon): > 100 µM
TGI (KM12 colon): > 100 µM
GI50 (MDA-MB-231 breast): > 100 µM
TGI (MDA-MB-231 breast): > 100 µM
GI50 (MOLT-4 leukemia): > 100 µM
TGI (MOLT-4 leukemia): > 100 µM
GI50 (NCI-H23 lung): > 100 µM
TGI (NCI-H23 lung): > 100 µM
GI50 (OVCAR-4 ovarian): > 100 µM
TGI (OVCAR-4 ovarian): > 100 µM
GI50 (RPMI-8226 leukemia): 7.13 µM
TGI (RPMI-8226 leukemia): > 100 µM
GI50 (RXF 393 renal): > 100 µM
TGI (RXF 393 renal): > 100 µM

Cc1coc2c1C(OC(=O)C(C)C)C1(C)C(C)CCC(O)C1C2=O (stereo not given)
TGI (786-0 renal): > 100 µM
TGI (A549 NSCLC): > 100 µM
TGI (CCRF-CEM leukemia): > 100 µM
TGI (KM12 colon): > 100 µM
TGI (MDA-MB-231 breast): > 100 µM
TGI (MOLT-4 leukemia): > 100 µM
TGI (NCI-H23 lung): > 100 µM
TGI (OVCAR-4 ovarian): > 100 µM
TGI (RPMI-8226 leukemia): > 100 µM
TGI (RXF 393 renal): > 100 µM

O=C(O)/C(=C\c1ccncc1)c1cccc2ccccc12
TGI (786-0 renal): > 100 µM
TGI (A549 NSCLC): > 100 µM
TGI (CCRF-CEM leukemia): > 100 µM
TGI (KM12 colon): > 100 µM
TGI (MDA-MB-231 breast): > 100 µM
TGI (MOLT-4 leukemia): > 100 µM
TGI (NCI-H23 lung): > 100 µM
TGI (OVCAR-4 ovarian): > 100 µM
TGI (RPMI-8226 leukemia): > 100 µM
TGI (RXF 393 renal): > 100 µM

Oc1ccc(N=Nc2ccccn2)c(O)c1
GI50 (786-0 renal): 0.394 µM
TGI (786-0 renal): > 100 µM
GI50 (A549 NSCLC): 2.94 µM
TGI (A549 NSCLC): > 100 µM
GI50 (CCRF-CEM leukemia): 0.48 µM
TGI (CCRF-CEM leukemia): > 100 µM
GI50 (KM12 colon): 0.699 µM
TGI (KM12 colon): > 100 µM
GI50 (MDA-MB-231 breast): 0.641 µM
TGI (MDA-MB-231 breast): > 100 µM
GI50 (MOLT-4 leukemia): 0.42 µM
TGI (MOLT-4 leukemia): > 100 µM
GI50 (NCI-H23 lung): 2.66 µM
TGI (NCI-H23 lung): > 100 µM
GI50 (OVCAR-4 ovarian): 0.267 µM
TGI (OVCAR-4 ovarian): 6.41 µM
GI50 (RPMI-8226 leukemia): 0.863 µM
TGI (RPMI-8226 leukemia): > 100 µM
GI50 (RXF 393 renal): 1.19 µM
TGI (RXF 393 renal): 33.6 µM

O=Nc1c(-c2c(O)[nH]c3ccc(Br)cc23)[nH]c2ccccc12
GI50 (786-0 renal): 3.25 µM
TGI (786-0 renal): 14.1 µM
GI50 (A549 NSCLC): 3.21 µM
TGI (A549 NSCLC): > 100 µM
GI50 (CCRF-CEM leukemia): 3.22 µM
TGI (CCRF-CEM leukemia): 16.8 µM
GI50 (KM12 colon): 1.14 µM
TGI (KM12 colon): 5.2 µM
GI50 (MDA-MB-231 breast): 3.55 µM
TGI (MDA-MB-231 breast): 21.8 µM
GI50 (MOLT-4 leukemia): 2.93 µM
TGI (MOLT-4 leukemia): 7.21 µM
GI50 (NCI-H23 lung): 3.13 µM
TGI (NCI-H23 lung): 12.8 µM
GI50 (OVCAR-4 ovarian): 5.94 µM
TGI (OVCAR-4 ovarian): 74.4 µM
GI50 (RPMI-8226 leukemia): 3.56 µM
TGI (RPMI-8226 leukemia): 25.5 µM
GI50 (RXF 393 renal): 3.62 µM
TGI (RXF 393 renal): > 100 µM

CS(=O)(=O)N(c1cc(-c2ccc3ncnc(Nc4cccc(Cl)c4)c3c2)cnc1Cl)S(C)(=O)=O
GI50 (786-0 renal): 0.506 µM
TGI (786-0 renal): 6.76 µM
GI50 (A549 NSCLC): 1.03 µM
TGI (A549 NSCLC): 4.24 µM
GI50 (CCRF-CEM leukemia): 0.52 µM
TGI (CCRF-CEM leukemia): 89.3 µM
GI50 (KM12 colon): 1.21 µM
TGI (KM12 colon): 4.72 µM
GI50 (MDA-MB-231 breast): 0.925 µM
TGI (MDA-MB-231 breast): 6.21 µM
GI50 (MOLT-4 leukemia): 0.334 µM
TGI (MOLT-4 leukemia): 1.31 µM
GI50 (NCI-H23 lung): 0.417 µM
TGI (NCI-H23 lung): 3.72 µM
GI50 (OVCAR-4 ovarian): 1.04 µM
TGI (OVCAR-4 ovarian): 10.4 µM
GI50 (RPMI-8226 leukemia): 0.522 µM
TGI (RPMI-8226 leukemia): 3.62 µM
GI50 (RXF 393 renal): 0.231 µM
TGI (RXF 393 renal): 0.91 µM

CC(=O)c1cc(O)c2ccccc2c1O
GI50 (786-0 renal): 20 µM
TGI (786-0 renal): 35.2 µM
GI50 (A549 NSCLC): 37.1 µM
TGI (A549 NSCLC): > 100 µM
GI50 (CCRF-CEM leukemia): 19.2 µM
TGI (CCRF-CEM leukemia): > 100 µM
GI50 (KM12 colon): 18.8 µM
TGI (KM12 colon): 35.1 µM
GI50 (MDA-MB-231 breast): 15.2 µM
TGI (MDA-MB-231 breast): 36.2 µM
GI50 (MOLT-4 leukemia): 33.6 µM
TGI (MOLT-4 leukemia): 99.4 µM
GI50 (NCI-H23 lung): 20.2 µM
TGI (NCI-H23 lung): 53.7 µM
GI50 (OVCAR-4 ovarian): 14.2 µM
TGI (OVCAR-4 ovarian): 41.6 µM
GI50 (RPMI-8226 leukemia): 22.7 µM
TGI (RPMI-8226 leukemia): 60.5 µM
GI50 (RXF 393 renal): 19.5 µM
TGI (RXF 393 renal): 33.8 µM

Cn1cc(C2=C(N3CCOCC3)C(=O)NC2=O)c2ccccc21
GI50 (786-0 renal): > 25 µM
TGI (786-0 renal): > 25 µM
GI50 (A549 NSCLC): > 25 µM
TGI (A549 NSCLC): > 25 µM
GI50 (CCRF-CEM leukemia): > 25 µM
TGI (CCRF-CEM leukemia): > 25 µM
GI50 (KM12 colon): > 25 µM
TGI (KM12 colon): > 25 µM
GI50 (MDA-MB-231 breast): > 25 µM
TGI (MDA-MB-231 breast): > 25 µM
GI50 (MOLT-4 leukemia): > 25 µM
TGI (MOLT-4 leukemia): > 25 µM
GI50 (NCI-H23 lung): > 25 µM
TGI (NCI-H23 lung): > 25 µM
GI50 (OVCAR-4 ovarian): > 25 µM
TGI (OVCAR-4 ovarian): > 25 µM
GI50 (RPMI-8226 leukemia): > 25 µM
TGI (RPMI-8226 leukemia): > 25 µM
GI50 (RXF 393 renal): > 25 µM
TGI (RXF 393 renal): > 25 µM

O=C(CCc1ccc(O)cc1)N/N=C/c1cc(Br)ccc1O
GI50 (786-0 renal): 3.73 µM
TGI (786-0 renal): 70.7 µM
GI50 (A549 NSCLC): 4.03 µM
TGI (A549 NSCLC): > 100 µM
GI50 (CCRF-CEM leukemia): 2.5 µM
TGI (CCRF-CEM leukemia): 12.6 µM
GI50 (KM12 colon): 3.36 µM
TGI (KM12 colon): 31.5 µM
GI50 (MDA-MB-231 breast): 4.45 µM
TGI (MDA-MB-231 breast): 53.6 µM
GI50 (MOLT-4 leukemia): 2.41 µM
TGI (MOLT-4 leukemia): 11.2 µM
GI50 (NCI-H23 lung): 7.42 µM
TGI (NCI-H23 lung): > 100 µM
GI50 (OVCAR-4 ovarian): 3.19 µM
TGI (OVCAR-4 ovarian): 82 µM
GI50 (RPMI-8226 leukemia): 3.57 µM
TGI (RPMI-8226 leukemia): 33.3 µM
GI50 (RXF 393 renal): 6.51 µM
TGI (RXF 393 renal): > 100 µM

Cc1ccc(Sc2cc3c(oc2=O)-c2ccccc2OC3O)cc1 (stereo not given)
GI50 (786-0 renal): 24.3 µM
TGI (786-0 renal): 51.6 µM
GI50 (A549 NSCLC): 28.5 µM
TGI (A549 NSCLC): 74.8 µM
GI50 (CCRF-CEM leukemia): 6.73 µM
TGI (CCRF-CEM leukemia): 78.5 µM
GI50 (KM12 colon): 21.5 µM
TGI (KM12 colon): 49.7 µM
GI50 (MDA-MB-231 breast): 28.8 µM
TGI (MDA-MB-231 breast): 71.2 µM
GI50 (MOLT-4 leukemia): 13.3 µM
TGI (MOLT-4 leukemia): 34.2 µM
GI50 (NCI-H23 lung): 27.7 µM
TGI (NCI-H23 lung): 55.3 µM
GI50 (OVCAR-4 ovarian): 33.1 µM
TGI (OVCAR-4 ovarian): > 100 µM
GI50 (RPMI-8226 leukemia): 23.2 µM
TGI (RPMI-8226 leukemia): 79.7 µM
GI50 (RXF 393 renal): 26.8 µM
TGI (RXF 393 renal): 62.2 µM

CCCCCCCCCCCCCCCC1=NC(C)(C)CN1C(C)C
GI50 (786-0 renal): 1.59 µM
TGI (786-0 renal): 2.94 µM
GI50 (A549 NSCLC): 1.81 µM
TGI (A549 NSCLC): 3.43 µM
GI50 (CCRF-CEM leukemia): 1.41 µM
TGI (CCRF-CEM leukemia): 3.47 µM
GI50 (KM12 colon): 1.33 µM
TGI (KM12 colon): 2.6 µM
GI50 (MDA-MB-231 breast): 1.61 µM
TGI (MDA-MB-231 breast): 3.1 µM
GI50 (MOLT-4 leukemia): 1.16 µM
TGI (MOLT-4 leukemia): 2.73 µM
GI50 (NCI-H23 lung): 1.49 µM
TGI (NCI-H23 lung): 2.81 µM
GI50 (OVCAR-4 ovarian): 2.04 µM
TGI (OVCAR-4 ovarian): 6.37 µM
GI50 (RPMI-8226 leukemia): 1.04 µM
TGI (RPMI-8226 leukemia): 2.82 µM
GI50 (RXF 393 renal): 1.52 µM
TGI (RXF 393 renal): 2.96 µM

C/C(=N\NC(=S)N(C)C)c1ccccn1
GI50 (786-0 renal): 0.0154 µM
TGI (786-0 renal): 11.3 µM
TGI (A549 NSCLC): 14.3 µM
GI50 (CCRF-CEM leukemia): 0.000277 µM
TGI (CCRF-CEM leukemia): 0.232 µM
GI50 (KM12 colon): 0.22 µM
TGI (KM12 colon): 20 µM
GI50 (MDA-MB-231 breast): 0.291 µM
TGI (MDA-MB-231 breast): 17.6 µM
GI50 (MOLT-4 leukemia): 0.000297 µM
TGI (MOLT-4 leukemia): 2.12 µM
TGI (NCI-H23 lung): 18.7 µM
TGI (OVCAR-4 ovarian): 10.4 µM
GI50 (RPMI-8226 leukemia): 0.000878 µM
TGI (RPMI-8226 leukemia): 31.9 µM
TGI (RXF 393 renal): 13.4 µM

CCN(CC)C(=S)[S][Bi]([S]C(=S)N(CC)CC)[S]C(=S)N(CC)CC
GI50 (786-0 renal): 0.163 µM
TGI (786-0 renal): 0.299 µM
GI50 (A549 NSCLC): 1.74 µM
TGI (A549 NSCLC): 3.27 µM
GI50 (CCRF-CEM leukemia): 0.0193 µM
GI50 (KM12 colon): 1.61 µM
TGI (KM12 colon): 3.1 µM
GI50 (MDA-MB-231 breast): 0.133 µM
TGI (MDA-MB-231 breast): 0.338 µM
GI50 (MOLT-4 leukemia): 0.0945 µM
TGI (MOLT-4 leukemia): 2.28 µM
GI50 (NCI-H23 lung): 0.211 µM
TGI (NCI-H23 lung): 0.582 µM
GI50 (OVCAR-4 ovarian): 0.165 µM
TGI (OVCAR-4 ovarian): 0.31 µM
GI50 (RPMI-8226 leukemia): 0.23 µM
TGI (RPMI-8226 leukemia): 2.15 µM
GI50 (RXF 393 renal): 0.183 µM
TGI (RXF 393 renal): 0.36 µM
